Measured values as given in US20250276999A1, “PEPTIDES FOR PROMOTING HAIR FOLLICLE NEOGENESIS, AND PREVENTION/MITIGATION OF UNTOWARD EFFECTS OF RADIATION TREATMENT” (Trustees of Tufts College, priority 2022, published 2025).
Like-named read-outs stand apart in the source and are kept apart here.

Legend:
X-ray irradiated mice = experiment: Radiation dermatitis murine model (thoracic X-ray irradiation); type: in vivo, C57BL/6 mice
Method: Animals were irradiated in the RS2000 small animal irradiator. The RS2000 provides a cone-shaped radiation field with irradiation at 12.39-40.50 cm from the X-ray source. For dose measurements, irradiation was performed with the following settings: 160 kVp, 25 mA, 90 s irradiation time and 0.3 mm Cu beam filtration. The approximate HVL provided by the manufacturer was 0.62 mm Cu. […] A custom lead shield was placed on the floor of the irradiator, with the mouse thoracic region ˜43.75 cm from the X-ray source. Dose measurements were conducted twice to account for set-up error and reproducibility. […] The dose rate was reported for each aperture position 1-4 as an absorbed dose rate to water (ADRW, Gy/min) and the two repeated measurements were averaged.
Mice (12-14 weeks of age) were anesthetized using inhaled anesthesia (isoflurane), and the fur was clipped on the dorsal side of the thoracic region. […] Animals were then anesthetized with injected anesthesia (150 mg/kg ketamine/18 mg/kg xylazine) and placed in Lucite jigs for exposure to 16.5 Gy thoracic irradiation in the RS2000 X-ray irradiator as previously described [19].
Animals were monitored daily for 85 days post-irradiation for both radiation dermatitis and combined injury models. Radiation dermatitis was separately scored for hair loss, erythema, scale, and ulceration. Scoring for erythema, scale and ulceration were previously described: 0=none; 1=minimal; 2=mild; 3=moderate; 4=marked [19]. Because all animals underwent fur clipping prior to irradiation and wounding, scoring for hair loss was determined as failure to regrow hair in the irradiated areas: 0=none; 1=minimal; 2=mild; 3=moderate; 4=marked. Animals were photographed for the measurement of wounds and for dermatitis scoring. […] Weight was measured as an indication of overall health.

[1] = test system: X-ray irradiated and wounded mice; experiment: Combined injury murine model (thoracic X-ray irradiation plus wound); type: in vivo, C57BL/6 mice
Text: The C57BL/6 strain of mice has been utilized extensively for the study of radiation-induced skin injuries. We determined that 16 Gy is the minimal dosage for the induction of radiation burns in C57BL/6 mice that are not repaired within 45 days. Sham irradiated mice without wounds were used as controls for radiation dermatitis, and treated identically as irradiated mice. Wounded mice, without radiation, were used as controls for combined injury.
Animals were irradiated in the RS2000 small animal irradiator. The RS2000 provides a cone-shaped radiation field with irradiation at 12.39-40.50 cm from the X-ray source. For dose measurements, irradiation was performed with the following settings: 160 kVp, 25 mA, 90 s irradiation time and 0.3 mm Cu beam filtration. The approximate HVL provided by the manufacturer was 0.62 mm Cu. The University of Wisconsin Medical Radiation Research Center (UW MRRC) provided eight acrylic mouse phantoms with three (1×1×1 mm) Harshaw thermoluminenscence dosimeter (TLD)-100 microcubes (ThermoElectron Corp., Oakwood Village, OH) embedded in each phantom. The cylindrical phantom had dimensions of 27 mm in diameter (D)×65 mm in length (L) and was stabilized by a cylindrical insert 15 mm (D)×27 mm (L) with a 3 mm thick stand. A custom lead shield was placed on the floor of the irradiator, with the mouse thoracic region ˜43.75 cm from the X-ray source. Dose measurements were conducted twice to account for set-up error and reproducibility. TLDs were processed at UW MRRC using a national standard with an expanded uncertainty (k=2) of 5%. The dose rate was reported for each aperture position 1-4 as an absorbed dose rate to water (ADRW, Gy/min) and the two repeated measurements were averaged.
Mice (12-14 weeks of age) were anesthetized using inhaled anesthesia (isoflurane), and the fur was clipped on the dorsal side of the thoracic region. Two days after fur clipping, mice to be used for combined injury were given acetaminophen (150 mg/kg in 0.5 ml sterile saline) by gavage. Animals were then anesthetized with injected anesthesia (150 mg/kg ketamine/18 mg/kg xylazine) and placed in Lucite jigs for exposure to 16.5 Gy thoracic irradiation in the RS2000 X-ray irradiator as previously described. For combined injury, immediately following thoracic irradiation and while still under anesthesia, the area of the skin was scrubbed with betadine or chlorhexidine, followed by cleaning with an alcohol pad. A 9/16 inch diameter punch biopsy tool was used to create a 1 cm wound in the central dorsal thoracic region, roughly in the center of the field of radiation exposure. The panniculus carnosus muscle and overlying skin will be removed. The wound will be left open to air. The size of the wound approximates 15% of the total body skin surface.
TSN6 peptide (5 μg/day in 50 μl sterile saline) or hepatocyte growth factor (HGF; 3.3 μg/day in 50 μl sterile saline) or vehicle (sterile saline, 50 μl) were injected subcutaneously on days 2, 7 and 10 post-irradiation. Injections were made caudal, adjacent to the irradiated or irradiated/wounded area.
Animals were monitored daily for 85 days post-irradiation for both radiation dermatitis and combined injury models. Radiation dermatitis was separately scored for hair loss, erythema, scale, and ulceration. Scoring for erythema, scale and ulceration were previously described: 0=none; 1=minimal; 2=mild; 3=moderate; 4=marked. Because all animals underwent fur clipping prior to irradiation and wounding, scoring for hair loss was determined as failure to regrow hair in the irradiated areas: 0=none; 1=minimal; 2=mild; 3=moderate; 4=marked. Animals were photographed for the measurement of wounds and for dermatitis scoring. […] Weight was measured as an indication of overall health.

dermal papilla cells = experiment: Alkaline phosphatase activity (marker of trichogenicity) in cultured cells; type: cell-based; settings: TSN18, treated for four days, in vitro
Method: Dermal papilla cells regulate hair follicle development and growth, unfortunately, maintaining dermal papilla cells inductive capacity is difficult in culture, as evident by their gradual loss of alkaline phosphatase activity in culture^3. To test if TSN peptides can increase alkaline phosphatase activity keratinocytes and dermal papilla cells were plated at 4000 and 2000 cells/well respectively in a 96 well plate with six replicates and cultured overnight. The media was changed and appropriate treatment-vehicle, scrambled peptide or active peptide—was added to the well. The media were changed with fresh media containing peptides 2 days after initial treatment, and the total culture period was 4 days, following which alkaline phosphatase activity was measured (FIG. 1). […]
Alkaline Phosphatase activity: Keratinocytes and dermal papilla cells were plated at 4000 and 2000 cells/well respectively in a 96 well plate with six replicates and cultured overnight. […] Alkaline phosphatase activity was measured according to manufacturer's instructions using Alkaline Phosphatase Yellow (pNPP) Liquid Substrate System for ELISA (Sigma Aldrich).
Materials and Methods: Cultured dermal papilla (DP) cells, specialized skin fibroblasts isolated from the base of hair follicles, were treated with TSN18 for four days. […] Graft sizes were measured by tracing the grafts and area determined using ImageJ (NIH) software.

[2] = test system: dermal papilla (DP) cells; experiment: Cell viability assay (MTT); type: cell-based; settings: treated for four days, in vitro
Method: Cell viability assay: Keratinocytes and dermal papilla cells were plated at 4000 and 2000 cells/well respectively in a 96 well plate with six replicates and cultured overnight. The media was changed and appropriate treatment-vehicle, scrambled peptide or active peptide—was added to the well. The media were changed with fresh media containing peptides 2 days after initial treatment, and the total culture period was 4 days. The cell viability was then measured using CellTiter […] Non-Radioactive Cell Proliferation Assay (MTT) (Promega Corporation). Briefly, 15 μL of dye solution was added to each well and incubated for 4 h at 37° C. and 5% CO2. Next 100 μL of stop solution was added to the mixture, incubated for an hour and absorbance was recorded at 570 nm using a plate reader.
Materials and Methods: Cultured dermal papilla (DP) cells, specialized skin fibroblasts isolated from the base of hair follicles, were treated with TSN18 for four days. Cell viability was measured using the CellTiter 96 Non-radioactive cell proliferation assay (MTT) kit. Alkaline phosphatase activity, a marker of trichogenicity was measured with the alkaline phosphatase yellow (pNPP) liquid substrate system for ELISA. […] The bandages were changed at two weeks and removed after four weeks and the grafts were monitored through 10 weeks. […]

[3] = test system: wound re-epithelization and closure; settings: in BALB/c mice, previous studies; cited from earlier work
mice with CI = experiment: Combined injury (CI) pilot study with active or scrambled peptide; type: in vivo, C57BL/6 mouse; settings: s.c. near wound on days 2, 7, 10 post-irradiation; 5 mice per group (FIG. 15)
Text: Mice were exposed to thoracic X-ray irradiation without excision wounding to induce CRI, and with an experimental excision wound within the irradiated region to induce CI. Animals were scored by researchers blinded to the treatment groups. Photographic documentation was made for each experiment. We evaluated the rate of wound healing from days 1-30 post-irradiation, and the severity of dermatitis was scored using four variable measures (erythema, scale, hair loss, and ulceration) in the mice from 14 days post-irradiation (dpi) until necropsy. Specific cellular and protein expression changes were determined using western blotting and immunohistochemistry (IHC). To evaluate the efficacy of bioactive peptides, mice with CI were treated with active peptides or scrambled peptides (negative control) by subcutaneous injection near the wound site on days 2, 7, and 10 post-irradiation. Additionally, vehicle control CI animals received saline (vehicle for the peptides) injections in the same volumes on the same days.

[4] = test system: wound re-epithelization and closure; settings: in vitro, previous studies; cited from earlier work
grafted DECs = experiment: Graft survival and size of TSN18-treated DECs grafted on nude mice; type: in vivo, Cr: NIH(S)-nu/nu mice
Method: Materials and Methods: Cultured dermal papilla (DP) cells, specialized skin fibroblasts isolated from the base of hair follicles, were treated with TSN18 for four days. Cell viability was measured using the CellTiter 96 Non-radioactive cell proliferation assay (MTT) kit. Alkaline phosphatase activity, a marker of trichogenicity was measured with the alkaline phosphatase yellow (pNPP) liquid substrate system for ELISA. A pilot study was performed to see whether incorporation of TSN18 active peptide in DECs improves graft survival or size. For the construction of DECs, human DP cells suspended in 1 mg/mL rat tail type I collagen were plated on inserts placed in six-well plates and incubated in media containing TSN18 active or scrambled peptide for 3 days. Subsequently, human neonatal foreskin keratinocytes were layered on top and the media changed to Epi medium containing TSN18 active or scrambled peptide for 2 days. […] The bandages were changed at two weeks and removed after four weeks and the grafts were monitored through 10 weeks. […] At the end of the experiment, the histological appearance of grafts was evaluated for the presence of a human stratified squamous epithelium and the presence or absence of human cells was assessed by staining for human leukocyte antigen. Graft sizes were measured by tracing the grafts and area determined using ImageJ (NIH) software.

[5] = 16.5 Gy, s.c. days 2, 7, 10 post-irradiation, TSN6 5 μg/day, HGF 3.3 μg/day, vs vehicle
[6] = 16.5 Gy plus wound, s.c. days 2, 7, 10, TSN6 5 μg/day, HGF 3.3 μg/day

Substance | ulceration score (X-ray irradiated mice; 16.5 Gy, s.c. days 2, 7, 10 post-irradiation, HGF 3.3 μg/day, vs vehicle) | erythema score (X-ray irradiated mice; [5]) | hair loss score (X-ray irradiated mice; [5]) | radiation dermatitis (overall measures) (X-ray irradiated mice; [5]) | scale score (X-ray irradiated mice; [5]) | adipose layer in H&E histological sections (X-ray irradiated mice; skin 83 days post-irradiation, radiation alone) | ulceration score ([1]; 16.5 Gy plus wound, HGF 3.3 μg/day s.c. days 2, 7, 10) | characteristics of radiation dermatitis (hair loss, scale, erythema, ulceration) including combined score [1, 6] | rate of wound closure / wound repair [1, 6] | adipose layer in histological sections ([1]; combined injury, 83 days post-irradiation) | alkaline phosphatase activity of DP cells (dermal papilla cells) | cell viability of DP cells [2] | wound re-epithelization and closure [3] | decrease of severity of aggregate radiation dermatitis scores (mice with CI) [%] | wound re-epithelization and closure [4] | average graft size (grafted DECs; at 10 weeks, peptide 10 μM, ImageJ) [mm2] | mice that retained the graft until 10 weeks (grafted DECs; peptide 10 μM in DECs, n=5 per group)
HGF: Hepatocyte growth factor, a pluripotent factor; a known adult tissue repair factor | not markedly different | not markedly different | not markedly different | did not improve any measures | not markedly different | some improve preservation of the adipose layer | somewhat exacerbate ulceration | did not improve any measure | did not accelerate wound repair | some improvement in the adipose layer in some animals |  |  |  |  |  |  | 
QPQPLPSPGVGGKN [TSN18, 14 aa combination of non-helical Collagen (VI) Alpha-3 chain regions] |  |  |  |  |  |  |  |  |  |  | did not affect | did not affect | promoted wound re-epithelization and closure | ~50 | promoted wound re-epithelization and closure | 16.4±5.4 | four out of five
